# Source: patent US11510980B2, “Brartemicin analogues” (VICTORIA LINK LTD, priority 2017, dated 2022)
# “Also recorded” adds a separate entry of the source.
# What was measured:
# mMincle-Ig = biological target: T1, mMincle-Ig (Mus musculus, UniProt Q9R0Q8); assay: In vitro Mincle binding assay (ELISA) with mMincle-Ig fusion protein; set-up: species or system murine; details: plate-coated ligand 0.1 nmol/well
# T1 construct: using soluble Mincle-Ig fusion-proteins; made in house
# T1 sequence (Q9R0Q8 46-214 limits assumed): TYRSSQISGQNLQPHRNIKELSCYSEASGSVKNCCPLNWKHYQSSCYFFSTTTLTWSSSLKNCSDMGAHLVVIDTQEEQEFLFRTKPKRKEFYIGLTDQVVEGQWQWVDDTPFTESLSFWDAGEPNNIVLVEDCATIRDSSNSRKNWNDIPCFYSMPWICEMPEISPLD
# Protocol: (§1) Preparation of ligand-coated plates: Brartemicin analogues 9a-9i, TDM (Carbosynth, Sigma Aldrich), and TDB^14 were dissolved in CHCl3:MeOH (2:1, 1 mM), diluted in isopropanol ([…]) and added to 96-well plates (20 μL/well). The solvents were evaporated and the coated plates were used immediately.
# In vitro Mincle binding assay: The preparation of mMincle- and hMincle-Ig fusion proteins have been previously described. Plate-coated glycolipids 9a-i, TDB, and TDM were incubated with hMincle-Ig, mMincle-Ig, or hIgG1-Fc (Ig) [3 μg/mL in binding buffer (20 mM Tris-HCl, 150 mM NaCl, 1 mM CaCl2), 2 mM MgCl2, pH 7.0)]. Detection of bound protein was achieved via incubation with anti-hIgG-HRP followed by the addition of a colorimetric substrate and measurement of OD at 450 nm. Background was accounted for by subtracting the hIgG1-Fc OD450 values from fusion protein OD450 values
# The synthesised brartemicin analogues prepared in Example 1 were first tested for their ability to bind to both human and murine Mincle in an enzyme-linked immunosorbent assay (ELISA) using soluble Mincle-Ig fusion-proteins (FIG. 1a).
# hMincle+FcRγ = biological target: T2, hMincle+FcRγ (Homo sapiens, UniProt Q9ULY5); assay: 2B4-NFAT-GFP reporter cells expressing hMincle+FcRγ; assay type: cell-based; details: ligand-coated plates 0.01, 0.1 or 1 nmol/well, 18 hours
# T2 construct: expressed in transfected cells; host or cells: 2B4-NFAT-GFP reporter cells
# T2 sequence (Q9ULY5 1-219): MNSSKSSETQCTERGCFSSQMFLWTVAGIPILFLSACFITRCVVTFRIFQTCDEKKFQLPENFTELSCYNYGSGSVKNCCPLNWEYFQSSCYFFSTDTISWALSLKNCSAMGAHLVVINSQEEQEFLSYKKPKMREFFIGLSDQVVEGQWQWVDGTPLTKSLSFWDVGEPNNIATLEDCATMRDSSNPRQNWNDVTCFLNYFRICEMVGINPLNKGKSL
# Protocol: as §1
# 2B4-NFAT-GFP reporter cells: 2B4-NFAT-GFP reporter cells expressing mMincle+FcRγ, hMincle+FcRγ, or FcRγ only have been previously described. […] The reporter cells were harvested, stained with propidium iodide, and analysed for NFAT-GFP expression using flow cytometry (FACS Calibur).
# To determine whether the Mincle binding observed in Example 1 correlated with cellular activation, nuclear factor of activated T cells (NFAT)-green fluorescent protein (GFP) reporter cells expressing mMincle or hMincle coupled to FcRγ were stimulated using plates coated with TDM, TDB, brartemicin (9i), or analogues 9a-9h.
# Activation of the reporter cells was measured through the production of GFP, which was monitored by flow cytometry (FIGS. 1b and 3c).
# With the compounds 43a-h in hand, the ability of these analogues to bind and signal through Mincle was assessed (FIG. 5). Accordingly, NFAT-GFP reporter cells expressing mMincle+FcRγ, hMincle+FcRγ, or FcRγ-only were stimulated with the 2G-brartemicin analogues 43a-h, TDB, iPrOH, or the p-OC18H37 substituted analogue, 9f. Reporter cell activation was measured by the production of NFAT-GFP, which was analysed by flow cytometry.
# C57BL/6 mice = assay: Delayed-type hypersensitivity immunisation with OVA in oil-in-water emulsion; assay type: in vivo; details: for Th1 immune response / adjuvant activity in vivo: oil-in-water emulsion
# Protocol: Delayed-type hypersensitivity: Mice were sensitised by subcutaneous injection with oil-in-water emulsions (mineral oil/Tween-80/PBS, 9:1:90, v/v/v) containing OVA only (200 μg), OVA+TDB (OVA=200 μg, TDB=0.3 μmol), OVA+9a (OVA=200 μg, 9a=0.3 μmol) or no OVA. After seven days, the mice were challenged with OVA (100 μg/footpad) and after a further seven days, the mice were sacrificed and their spleens harvested. For in vitro restimulation, splenocytes were restimulated with OVA and analysed for spenocyte number (measured at 450 nm after 3 hours, Cell Count Reagent SF, Nacalai Tesque Inc.), IFN-γ production, and IL-17 production. Footpad swelling was measured using a venier caliper pre-challenge, 24 hours post-challenge, and 48 hours post-challenge. Sera were collected from each mouse on days 0, 7, and 14 and analysed for OVA-specific antibody titers by ELISA using HRP coupled goat anti-mouse IgG (GE Health-care), IgG1, IgG2b, IgG2c, and IgG3 (SouthernBiotec). EC50 were defined by plotting the absorbance at 450 nm against log of serum concentration. Antibody titration curves were plotted using GraphPad Prism7 (GraphPad Software).
# Compound 9a was then evaluated in vivo to confirm its capacity to induce a Th1 antigen-specific response using a delayed-type hypersensitivity immunisation protocol. To this end, four groups of C57BL/6 mice were immunised by subcutaneous injection with oil-in-water emulsions containing either OVA only, OVA+C18dMeBrar (9a), OVA+TDB, or no OVA. After seven days the mice were challenged with OVA (100 μg per footpad) and after a further seven days, the splenocytes were isolated and restimulated with OVA at three concentrations (10, 30, or 100 μg/mL). The immune response was measured by determining footpad swelling, production of IFN-γ and IL-17 (FIG. 7b), T cell proliferation (FIG. 4a), and antibody titres (FIG. 4c). […] Accordingly, the ability of C18dMeBrar (9a) to lead to an enhanced Th1 immune response was even more striking. This overall immune profile was also reflected in the antibody production by immunised mice. […] A high IgG2c:IgG1 ratio is commonly associated with Th1 responses and a lower ratio is associated with Th2 responses. The production of IgG2c in mice immunised with C18dMeBrar increased three-fold as compared to OVA alone, providing evidence that C18dMeBrar induces a Th1-biased immune response.
# [1] = s.c. OVA 200 μg + adjuvant 0.3 μmol
substance,measurement,setting,value
"6,6′-Di-O-(2-hydroxy-4-octabenzyloxybenzoyl)-α,α′-D-trehalose [9a]","binding to mMincle-Ig (ELISA, OD at 450 nm)",mMincle-Ig,good binding
same,activation of hMincle NFAT-GFP reporter cells (GFP by flow cytometry),hMincle+FcRγ,strongly activated; also recorded: best able to activate hMincle
same,cell count compared to TDB,C57BL/6 mice; all concentrations of OVA re-stimulation,significant increase in cell count
same,number of splenocytes as compared to OVA alone,C57BL/6 mice; [1],significantly larger number of splenocytes
same,Th1 immune response / adjuvant activity in vivo,C57BL/6 mice; [1],potent adjuvant activity in vivo; also recorded: strong Th1 recall response; also recorded: polarised immune response with a distinct Th1 profile
same,Th1 immune response / adjuvant activity in vivo,"C57BL/6 mice; s.c. OVA 200 μg + adjuvant 0.3 μmol, listed as C18dMeBrar",stronger Th1 immune response
same,footpad swelling,"C57BL/6 mice; s.c. OVA 200 μg + adjuvant 0.3 μmol, OVA challenge 100 μg/footpad",neither 9a nor TDB induced any
same,IL-17 production by splenocytes restimulated with OVA,"C57BL/6 mice; s.c. OVA 200 μg + adjuvant 0.3 μmol, restimulation 10, 30 or 100 μg/mL OVA",neither 9a nor TDB induced any
same,"antigen specific IFN-γ production, re-stimulating with 100 μg/mL of antigen","C57BL/6 mice; s.c. OVA 200 μg + adjuvant 0.3 μmol, splenocytes restimulated with 100 μg/mL OVA",significantly enhanced cytokine production
same,"antigen specific IFN-γ production, all concentrations of OVA","C57BL/6 mice; s.c. OVA 200 μg + adjuvant 0.3 μmol, splenocytes restimulated with 10, 30 or 100 μg/mL OVA",trend towards increased
same,IgG1 antibody production,"C57BL/6 mice; serum, ELISA",showed increases
same,IgG2b antibody production,"C57BL/6 mice; serum, ELISA",showed increases
same,IgG2c antibody production,"C57BL/6 mice; serum, ELISA",showed increases
same,production of IgG2c as compared to OVA alone,"C57BL/6 mice; serum, ELISA",three-fold
same,production of OVA-specific IgG antibodies,"C57BL/6 mice; serum, ELISA",elevated the production of IgG antibodies
same,production of OVA-specific IgG antibodies,"C57BL/6 mice; serum, ELISA, listed as C18dMeBrar",only significant for C18dMeBrar
